Source: ChEMBL document CHEMBL4732193, “Design, synthesis, and anti-tumor activities of novel Brevinin-1BYa peptidomimetics” (Bioorg Med Chem Lett, 2021)
pIC50: −log10 of the molar value. Starred links: 1 amine or outer side, 2 acyl side, 3 side chain; linkers in the order of their positions; H or OH if unused. Positions of bridges follow the written chain, without caps; N, C: chain ends. Non-standard residues stand in square brackets, D forms with d. Residues, ends and D or L forms follow the SMILES beside them. Triazole bridges read from a SMILES are 1,4-linked. *: point of attachment. βGlcNAc = CC(=O)N[C@@H]1[C@@H](O)[C@H](O)[C@@H](CO)O[C@H]1*; Abu(4-yl) = O=C([C@H](CC[*:3])N[*:1])[*:2]; Dap(N3) = [N-]=[N+]=NC[C@H](N)C(=O)O; Pra = C#CC[C@H](N)C(=O)O; Dap = NC[C@H](N)C(=O)O

Assays:
[1] = Hemolytic activity in rabbit erythrocytes assessed as hemoglobin release; type: ADME, cell-based, Oryctolagus cuniculus, Erythrocyte
alpha chymotrypsin = assay: Stability of the compound assessed as alpha chymotrypsin (unknown origin)-mediated proteolysis by measuring degradation half life measured for 24 hrs; type: ADME, Homo sapiens
[2] = Stability of the compound in aqueous DTT solution assessed as degradation half life measured for 48 hrs; type: physicochemical
A549 = assay: Anticancer activity against human A549 cells assessed as cell growth inhibition by CCK8 assay; type: functional, cell-based
[3] = Helicity of the compound in TFE aqueous solution by CD spectroscopy; type: physicochemical; settings: buffer
Huh-7 [4] = assay: Anticancer activity against human Huh-7 cells assessed as cell growth inhibition by CCK8 assay; type: functional, cell-based
[5] = Stability of the compound in aqueous DTT solution measured after 48 hrs; type: physicochemical; settings: buffer
LNCaP C4-2B [6] = assay: Anticancer activity against human LNCaP C4-2B cells assessed as cell growth inhibition by CCK8 assay; type: functional, cell-based
LNCaP C4-2B [7] = assay: Potency index, ratio of Brevinin-1BYa IC50 to test compound IC50 for human LNCaP C4-2B cells by CCK8 assay; type: functional
Huh-7 [8] = assay: Potency index, ratio of Brevinin-1BYa IC50 to test compound IC50 for human Huh-7 cells by CCK8 assay; type: functional
[9] = Helicity of the compound in TFE aqueous solution by CD spectroscopy relative to Brevinin-1BYa; type: physicochemical; settings: buffer
[10] = Ratio of test compound t1/2 to Brevinin-1BYa t1/2 for alpha chymotrypsin (unknown origin)-mediated proteolysis measured for 24 hrs; type: ADME; settings: human

Row | SMILES | half-life (alpha chymotrypsin) [h] | half-life [2] [h] | pIC50 (A549) | Activity [3] [%] | pIC50 (Huh-7 [4]) | Stabilty [5] | pIC50 (LNCaP C4-2B [6]) | fold change (FC) [9] | Ratio [10] | HC50 [1] [µM] | Ratio IC50 (LNCaP C4-2B [7]) | Ratio IC50 (Huh-7 [8])
1 | CC[C@H](C)[C@H](NC(=O)[C@H](CC(C)C)NC(=O)[C@H](C)NC(=O)[C@H](CO)NC(=O)[C@H](CC(C)C)NC(=O)[C@H](C)NC(=O)[C@H](C)NC(=O)[C@H](CCCCN)NC(=O)[C@H](Cc1ccccc1)NC(=O)CNC(=O)[C@@H]1CCCN1C(=O)[C@H](CCCCN)NC(=O)[C@H](CC(C)C)NC(=O)[C@H](Cc1ccccc1)NC(=O)[C@@H]1CNC(=O)C[C@H](N)C(=O)N[C@@H](CCCCN)C(=O)N[C@@H](CCCCN)C(=O)N[C@@H]([C@@H](C)O)C(=O)N[C@@H](C(C)C)C(=O)N[C@@H](CC(C)C)C(=O)N1)C(=O)N1CCC[C@H]1C(=O)N[C@@H](CC(C)C)C(=O)N[C@@H](Cc1ccccc1)C(=O)O (H-DKKTVL[Dap]FLKPGFKAALSALIPLF-OH; lactam 1-7) | 1.81 | > 12 | 4.77 | 26.34 | 4.78 | Stable | 4.78 |  |  | > 100 |  | 
2 | CC[C@H](C)[C@H](NC(=O)[C@H](CC(C)C)NC(=O)[C@H](C)NC(=O)[C@H](CO)NC(=O)[C@H](CC(C)C)NC(=O)[C@H](C)NC(=O)[C@H](C)NC(=O)[C@H](CCCCN)NC(=O)[C@H](Cc1ccccc1)NC(=O)CNC(=O)[C@@H]1CCCN1C(=O)[C@H](CCCCN)NC(=O)[C@H](CC(C)C)NC(=O)[C@H](Cc1ccccc1)NC(=O)[C@@H]1Cn2cc(nn2)C[C@H](N)C(=O)N[C@@H](CCCCN)C(=O)N[C@@H](CCCCN)C(=O)N[C@@H]([C@@H](C)O)C(=O)N[C@@H](C(C)C)C(=O)N[C@@H](CC(C)C)C(=O)N1)C(=O)N1CCC[C@H]1C(=O)N[C@@H](CC(C)C)C(=O)N[C@@H](Cc1ccccc1)C(=O)O (H-[Pra]KKTVL[Dap(N3)]FLKPGFKAALSALIPLF-OH; triazole 1-7) | 2.93 | > 12 | 4.66 |  | 4.95 | Stable | 4.90 |  |  | 70.4 |  | 
3 | CC[C@H](C)[C@H](NC(=O)[C@H](CC(C)C)NC(=O)[C@H](C)NC(=O)[C@H](CO)NC(=O)[C@H](CC(C)C)NC(=O)[C@H](C)NC(=O)[C@H](C)NC(=O)[C@H](CCCCN)NC(=O)[C@H](Cc1ccccc1)NC(=O)CNC(=O)[C@@H]1CCCN1C(=O)[C@H](CCCCN)NC(=O)[C@H](CC(C)C)NC(=O)[C@H](Cc1ccccc1)NC(=O)[C@@H]1CCSC[C@H](N)C(=O)N[C@@H](CCCCN)C(=O)N[C@@H](CCCCN)C(=O)N[C@@H]([C@@H](C)O)C(=O)N[C@@H](C(C)C)C(=O)N[C@@H](CC(C)C)C(=O)N1)C(=O)N1CCC[C@H]1C(=O)N[C@@H](CC(C)C)C(=O)N[C@@H](Cc1ccccc1)C(=O)O (H-CKKTVL[Abu(4-yl)]FLKPGFKAALSALIPLF-OH; thioether 1-7) | 2.51 | > 12 | 4.95 | 83.65 | 4.97 | Stable | 5.03 | 2.7 |  | 70.4 | 1.5 | 1.38

Continued, in another order:

Row | half-life (alpha chymotrypsin) [h] | half-life [2] [h] | pIC50 (A549) | Activity [3] [%] | pIC50 (Huh-7 [4]) | Stabilty [5] | pIC50 (LNCaP C4-2B [6]) | fold change (FC) [9] | Ratio [10] | SMILES | HC50 [1] [µM] | Ratio IC50 (LNCaP C4-2B [7]) | Ratio IC50 (Huh-7 [8])
4 | 1.62 | 3.35 | 5.03 | 22.57 | 4.83 | Unstable | 4.86 |  |  | CC[C@H](C)[C@H](NC(=O)[C@H](CC(C)C)NC(=O)[C@H](C)NC(=O)[C@H](CO)NC(=O)[C@H](CC(C)C)NC(=O)[C@H](C)NC(=O)[C@H](C)NC(=O)[C@H](CCCCN)NC(=O)[C@H](Cc1ccccc1)NC(=O)CNC(=O)[C@@H]1CCCN1C(=O)[C@H](CCCCN)NC(=O)[C@H](CC(C)C)NC(=O)[C@H](Cc1ccccc1)NC(=O)[C@@H]1CSSC[C@H](N)C(=O)N[C@@H](CCCCN)C(=O)N[C@@H](CCCCN)C(=O)N[C@@H]([C@@H](C)O)C(=O)N[C@@H](C(C)C)C(=O)N[C@@H](CC(C)C)C(=O)N1)C(=O)N1CCC[C@H]1C(=O)N[C@@H](CC(C)C)C(=O)N[C@@H](Cc1ccccc1)C(=O)O (H-CKKTVLCFLKPGFKAALSALIPLF-OH; disulfide 1-7) | 94.4 |  | 
5 | 4.32 | 3.31 | 4.49 |  | 4.40 | Unstable | 4.73 |  | 1.66 | CC[C@H](C)[C@H](NC(=O)[C@H](CC(C)C)NC(=O)[C@H](C)NC(=O)[C@H](CO[C@@H]1O[C@H](CO)[C@@H](O)[C@H](O)[C@H]1NC(C)=O)NC(=O)[C@H](CC(C)C)NC(=O)[C@H](C)NC(=O)[C@H](C)NC(=O)[C@H](CCCCN)NC(=O)[C@H](Cc1ccccc1)NC(=O)CNC(=O)[C@@H]1CCCN1C(=O)[C@H](CCCCN)NC(=O)[C@H](CC(C)C)NC(=O)[C@H](Cc1ccccc1)NC(=O)[C@@H]1CSSC[C@H](N)C(=O)N[C@@H](CCCCN)C(=O)N[C@@H](CCCCN)C(=O)N[C@@H]([C@@H](C)O)C(=O)N[C@@H](C(C)C)C(=O)N[C@@H](CC(C)C)C(=O)N1)C(=O)N1CCC[C@H]1C(=O)N[C@@H](CC(C)C)C(=O)N[C@@H](Cc1ccccc1)C(=O)O (H-CKKTVLCFLKPGFKAALS(βGlcNAc)ALIPLF-OH; disulfide 1-7) | > 100 |  | 
6 | 4.33 | 3.32 | 4.68 |  | 4.63 | Unstable | 4.69 |  | 1.67 | CC[C@H](C)[C@H](NC(=O)[C@H](CC(C)C)NC(=O)[C@H](C)NC(=O)[C@H](CO)NC(=O)[C@H](CC(C)C)NC(=O)[C@H](C)NC(=O)[C@H](C)NC(=O)[C@H](CCCCN)NC(=O)[C@H](Cc1ccccc1)NC(=O)CNC(=O)[C@@H]1CCCN1C(=O)[C@H](CCCCN)NC(=O)[C@H](CC(C)C)NC(=O)[C@H](Cc1ccccc1)NC(=O)[C@@H]1CSSC[C@H](N)C(=O)N[C@@H](CCCCN)C(=O)N[C@@H](CCCCN)C(=O)N[C@@H]([C@@H](C)O[C@@H]2O[C@H](CO)[C@@H](O)[C@H](O)[C@H]2NC(C)=O)C(=O)N[C@@H](C(C)C)C(=O)N[C@@H](CC(C)C)C(=O)N1)C(=O)N1CCC[C@H]1C(=O)N[C@@H](CC(C)C)C(=O)N[C@@H](Cc1ccccc1)C(=O)O (H-CKKT(βGlcNAc)VLCFLKPGFKAALSALIPLF-OH; disulfide 1-7) | > 100 |  | 
